# Data reported in PubChem BioAssay AID504455 (Sanford-Burnham Center for Chemical Genomics, 2011).
# The source made the active and inactive calls.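 The calls were made as follows: active = compounds whose mean IC50 is below 20 µM; inactive = the rest.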
# Target: Apelin receptor (Homo sapiens) (UniProt P35414)
# Assay: blockers of apelin-13-driven APJ signaling – cell-based, CHO-K1 AGTRL-1, PathHunter luminescence, set 6, SAR follow-up (AID 504455)
# Conditions: CHO-K1 APJ beta-arrestin PathHunter, apelin-13 antagonism
# Chain of Apelin receptor (Homo sapiens) (P35414 whole entry, looked up): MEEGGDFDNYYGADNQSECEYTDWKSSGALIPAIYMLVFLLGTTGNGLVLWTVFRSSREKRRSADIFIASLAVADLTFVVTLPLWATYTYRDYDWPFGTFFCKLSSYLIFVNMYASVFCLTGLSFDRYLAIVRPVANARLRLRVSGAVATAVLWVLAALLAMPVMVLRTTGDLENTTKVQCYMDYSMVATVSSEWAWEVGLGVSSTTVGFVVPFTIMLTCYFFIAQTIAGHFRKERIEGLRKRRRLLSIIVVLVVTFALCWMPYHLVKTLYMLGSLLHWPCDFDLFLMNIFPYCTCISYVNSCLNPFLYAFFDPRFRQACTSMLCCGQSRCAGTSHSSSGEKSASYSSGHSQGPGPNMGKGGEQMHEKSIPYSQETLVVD
row,SMILES,IC50
1,Cc1ccnc(SCc2cc(=O)c(OC(=O)c3ccccc3)co2)n1,> 79 µM (inactive)
2,N#Cc1ccc(C(=O)Oc2coc(CSc3ncccn3)cc2=O)cc1,9.77 µM
3,Cc1ccc(C(=O)Oc2coc(CSc3ncccn3)cc2=O)cc1[N+](=O)[O-],10.9 µM
4,Cc1ccnc(SCc2cc(=O)c(OC(=O)c3ccc([N+](=O)[O-])cc3)co2)n1,3.11 µM
5,Cc1ccnc(SCc2cc(=O)c(OC(=O)c3ccc(C#N)cc3)co2)n1,11.5 µM
